Experimental data published in US20210177952A1, “METHOD AND COMPOSITION FOR STIMULATING IMMUNE RESPONSE” (BeyondSpring Pharmaceuticals, Inc., priority 2018, published 2021).

Tested on: CD4^+ T cells combined with CD14^+ dendritic cells
Test: Allogeneic mixed lymphocyte reaction (MLR), IL-2 and IFN-γ by ELISA
Assay type: cell-based, Human
Protocol: Human peripheral CD14 positive monocytes were collected from a human donor and, subsequently, differentiated and matured into CD14^+ dendritic cells (DCs). Human CD4 positive T-cells were separately collected from another human donor. The collected CD4^+ T cells were combined with the CD14^+ DCs in a mixed lymphocyte reaction (MLR). In this Example, a tubulin binding agent was added, respectively, in the step of monocyte differentiation, in the step of dendritic cell maturation, and in the step of T-cell activation by combining the CD14^+ DCs with the CD4^+ T cells.
ISOLATION OF HUMAN CD4^+ T CELLS FROM ANOTHER DONOR'S PBMCs: PBMC cells were obtained from another human donor according to (1a)-(1d) above. CD4^+ T-cells were then isolated from these PBMCs according to steps (3a)-(3k) as follows: (3a) The number of the PBMC cells was determined. (3b) The cell suspension was centrifuged at 300×g for 10 min. The supernatant was then completely aspirated. (3c) The cell pellet was re-suspended in 40 μL of FACS buffer per 10^7 total cells. (3d) 10 μL of CD4^+ T Cell Biotin-Antibody Cocktail was added per 10^7 total cells. (3e) The mixture was well mixed and incubated for 5 min in refrigerator (at 2-8° C.). (3f) 30 μL of FACS buffer was added per 10^7 total cells, and 20 μL of CD4^+ T-Cell MicroBead Cocktail was added per 10^7 total cells. (3g) The mixture was well mixed and incubated for 10 min in refrigerator (at 2 to 8° C.). (3h) A column is placed in magnetic field of a suitable MACS Separator. (3i) The column is prepared by rinsing with 3 mL of buffer. (3j) The cell suspension was applied onto the column. The flow-through containing unlabeled cells, representing the enriched CD4^+ T cells, were collected. […]
ALLOGENEIC ACTIVATION OF T CELLS ASSESSED BY MLR ASSAY: Allogeneic Mixed Lymphocyte Reaction (MLR) assays were performed according to steps (4a)-(4d) as follows: (4a) The test article (e.g., plinabulin and other tubulin binding agents) were each diluted in RPMI 1640 medium according to one of Tables 7-9 and, subsequently, added at 50 μL/well in appropriate wells. […]

`CC(C)(C)c1[nH]cnc1/C=c1\[nH]c(=O)/c(=C/c2ccccc2)[nH]c1=O` [Plinabulin, (3Z,6Z)-3-Benzylidene-6-{[5-(2-methyl-2-propanyl)-1H-imidazol-4-yl]methylene}-2,5-piperazinedione] was tested, and the “IL2 secretion in MLR” value (CD14^+ monocytes treated at 1 or 3 μM during DC differentiation) was “decrease in IL2 secretion”, the “IL2 secretion in MLR” value (DCs treated at 1 or 3 μM during DC maturation) was “increase in IL2 secretion” and the “MLR induced IL-2 secretion” value (treatment at ≥100 nM began when mature DCs were combined with CD4 T-cells, compared with nivolumab at 2 mg/ml) was “significant increase in MLR induced IL-2 secretion, greater than that of nivolumab”.
